We go through 23 compounds from patent publication US20240368158A1, “KINASE MODULATORS, COMPOSITIONS COMPRISING THE KINASE MODULATOR, AND METHODS OF USING THE SAME” (BIOFRONT LTD, priority 2021, published 2024).

Where only a bound is given, the exact number is not on record here.

One assay deals with T1, HPK1 (Homo sapiens, UniProt Q92918).
T1 construct: purchased Signal Chem M23-11G-10
T1 sequence (Q92918 1-346 limits assumed): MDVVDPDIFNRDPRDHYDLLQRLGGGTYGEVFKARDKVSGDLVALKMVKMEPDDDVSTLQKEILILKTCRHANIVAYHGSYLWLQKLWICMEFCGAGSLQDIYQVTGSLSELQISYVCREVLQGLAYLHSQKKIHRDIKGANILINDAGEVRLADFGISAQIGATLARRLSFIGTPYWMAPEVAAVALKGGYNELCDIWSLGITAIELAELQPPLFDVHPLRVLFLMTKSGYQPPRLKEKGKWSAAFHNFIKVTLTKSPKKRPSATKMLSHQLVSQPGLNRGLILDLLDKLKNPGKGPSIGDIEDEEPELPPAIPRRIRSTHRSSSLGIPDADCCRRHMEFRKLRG
Briefly: HPK1 enzyme inhibition assay (ADP-Glo). It counts as biochemical. Conditions: MBP substrate, ATP. The protocol:
The compound was dissolved in 100% DMSO at the concentration of 10 mM. The HPK1 protein was purchased from Signal Chem (M23-11G-10). 2.5 μL per well of 2×HPK1 protein was added to assay plate containing the test compound, centrifuged at 1500 rpm for 1 minute, and then incubated at 25° C. for 60 minutes. MBP protein was purchased from Signal Chem (M42-51N) and ATP was purchased from Promega (V9102). The two were added 2.5 μL per well mixture of 2×MBP (0.2 ug/ul) and ATP (20 μM), centrifuged at 1500 rpm for 1 minute, then incubated at 25° C. for 60 minutes. Then added 5 μL of ADP-Glo from Promega (V9102) to the assay plate and depleted the unconsumed ATP for 60 minutes. Then centrifuged at 1500 rpm for 1 minute and incubated at 25° C. for 60 minutes. Finally, 10 μL of the kinase assay reagent from Promega (V9102) was added to the assay plate to convert ADP to ATP, centrifuged at 1500 rpm for 1 minute, incubate at 25° C. for 40 minutes. After 40 minutes incubation, the […] was determined. Based on the results, the IC50 value of the compound was calculated.

Assay [1] concerns HPK1 p-SLP-76 in Jurkat cells. Nature of the assay: HPK1 p-SLP-76 inhibition assay in Jurkat cells (HTRF). The format is cell-based. Conditions: Homo sapiens, 4 h compound, anti-CD3 stimulation 20 min. The protocol:
Before compound treatment, Jurkat cells were starved in PRMI-1640 medium supplemented with 0.5% FBS overnight. The cell density was adjusted to 1*10^7 cells/mL in assay medium (RPMI-1640 no phenol red with 0.5% FBS) and 16 uL cell suspension was transferred per well to a 384-well plate (Corning #3765). […] of test compound was prepared in assay medium and 4 uL was added per well to the 384-well plate. The plate was then incubated at 37° C., 5% CO2 for 4 h. Jurkat cells in 384-well plate were stimulated with anti-CD3 (BD Biosciences #555329, final conc. is 10 ug/mL) for 20 min at 37° C., 5% CO2 by adding 4 uL 6× antibody solution per well. Phospho-SLP76 HTRF kit was purchased from Cisbio (63ADK076PEH). 8 uL 4× Lysis Buffer was added to 384-well plate after anti-CD3 stimulation. The plate was centrifuged at 1,000 rpm for 1 min, shaken at 250 rpm for 60 min and centrifuged again at 1,000 rpm for 5 min. Afterwards the cell lysates were transferred to the assay plate (Greiner #784075) with 16 uL per well. 4 uL detection antibody mix per well prepared in Detection Buffer was added to the assay plate, followed by centrifugation at 1,000 rpm for 1 min and incubation at 25° C. overnight. The fluorescence emission at two different wavelengths (665 nm and 620 nm) was read by an HTRF compatible microplate reader and the IC50 value of the compound was calculated.

On to `Cn1cnc(C#Cc2c[nH]c3ncc(-c4cccc(N5CCNCC5=O)c4)c(Cl)c23)n1` [Example 14, 1-(3-(4-chloro-3-((1-methyl-1H-1,2,4-triazol-3-yl)ethynyl)-1H-pyrrolo[2,3-b]pyridin-5-yl)phenyl)piperazin-2-one], for which the 50% inhibitory concentration (IC50) on HPK1 was 10 to 100 nM; in assay [1] it was greater than 10000 nM.

Consider `O=C1CNCCN1c1cccc(-c2cnc3[nH]cc(C4CC4)c3c2Cl)n1` [Example 15, 1-(6-(4-chloro-3-cyclopropyl-1H-pyrrolo[2,3-b]pyridin-5-yl)pyridin-2-yl)piperazin-2-one], for which the figures for the IC50 (at HPK1; in assay [1]) were no more than 10 nM and no more than 300 nM, respectively.

For the compound `O=C1CNCCN1c1cccc(-c2cnc3[nH]cc(CC(F)F)c3c2Cl)n1` [Example 16, 1-(6-(4-chloro-3-(2,2-difluoroethyl)-1H-pyrrolo[2,3-b]pyridin-5-yl)pyridin-2-yl)piperazin-2-one], the IC50 on HPK1 lay in the range of 10 to 100 nM; in assay [1] it was 300 to 3000 nM.

`CCc1c[nH]c2ncc(-c3cc(N4CCNCC4=O)ccc3F)c(Cl)c12` [Example 17, 1-(3-(4-chloro-3-ethyl-1H-pyrrolo[2,3-b]pyridin-5-yl)-4-fluorophenyl)piperazin-2-one]: the figures for the concentration for half-maximal inhibition (IC50) (against HPK1; in assay [1]) were 10 to 100 nM and 300 to 3000 nM, respectively.

For `O=C1CNCCN1c1cc(-c2cnc3[nH]cc(C4CC4)c3c2Cl)ccn1` [Example 18, 1-(4-(4-chloro-3-cyclopropyl-1H-pyrrolo[2,3-b]pyridin-5-yl)pyridin-2-yl)piperazin-2-one], the IC50 is 10 to 100 nM on HPK1 and 3000 to 10000 nM in assay [1].

Consider `O=C1CNCCN1c1cncc(-c2cnc3[nH]cc(C4CC4)c3c2Cl)c1` [Example 19, 1-(5-(4-chloro-3-cyclopropyl-1H-pyrrolo[2,3-b]pyridin-5-yl)pyridin-3-yl)piperazin-2-one], for which the IC50 on HPK1 was 100 to 1000 nM; in assay [1] it was greater than 10000 nM.

Regarding `CCc1c[nH]c2ncc(-c3cc(N4CCNCC4=O)ccc3CO)cc12` [Example 21, 1-(3-(3-ethyl-1H-pyrrolo[2,3-b]pyridin-5-yl)-4-(hydroxymethyl)phenyl)piperazin-2-one], the IC50 against HPK1 is greater than 1000 nM; in assay [1], greater than 10000 nM.

As for `CCc1c[nH]c2ncc(-c3cccc(N4CCC[C@H](CO)C4=O)c3)c(Cl)c12` [Example 23, (R)-1-(3-(4-chloro-3-ethyl-1H-pyrrolo[2,3-b]pyridin-5-yl)phenyl)-3-(hydroxymethyl)piperidin-2-one], the 50% inhibitory concentration (IC50) on HPK1 is no more than 10 nM; in assay [1], 300 to 3000 nM.

For `CCc1c[nH]c2ncc(-c3cccc(N4CCC[C@@H](CO)C4=O)c3)c(Cl)c12` [Example 24, (S)-1-(3-(4-chloro-3-ethyl-1H-pyrrolo[2,3-b]pyridin-5-yl)phenyl)-3-(hydroxymethyl)piperidin-2-one], the IC50 was no more than 10 nM at HPK1 and 300 to 3000 nM in assay [1].

Consider `CCc1c[nH]c2ncc(-c3cccc(N4CCN(C(=O)CN5CCOCC5)CC4=O)c3)c(Cl)c12` [Example 26, 1-(3-(4-chloro-3-ethyl-1H-pyrrolo[2,3-b]pyridin-5-yl)phenyl)-4-(2-morpholinoacetyl)piperazin-2-one], for which the results for the 50% inhibitory concentration (IC50) (against HPK1; in assay [1]) were no more than 10 nM and 300 to 3000 nM, respectively.

As to `CCc1c[nH]c2ncc(-c3cccc(N4CCN(C(=O)OC)CC4=O)c3)c(Cl)c12` [Example 27, Methyl 4-(3-(4-chloro-3-ethyl-1H-pyrrolo[2,3-b]pyridin-5-yl)phenyl)-3-oxopiperazine-1-carboxylate], the results for the IC50 (against HPK1; in assay [1]) were no more than 10 nM and no more than 300 nM, respectively.

With `CCc1c[nH]c2ncc(-c3cccc(N4CCN(CCOC)CC4=O)c3)c(Cl)c12` [Example 28, 1-(3-(4-chloro-3-ethyl-1H-pyrrolo[2,3-b]pyridin-5-yl)phenyl)-4-(2-methoxyethyl)piperazin-2-one], the IC50 was no more than 10 nM against HPK1 and 300 to 3000 nM in assay [1].

`COCC(=O)N1CCN(c2cccc(-c3cnc4[nH]cc(C#Cc5cccnc5)c4c3Cl)c2)C(=O)C1` [Example 29, 1-(3-(4-chloro-3-(pyridin-3-ylethynyl)-1H-pyrrolo[2,3-b]pyridin-5-yl)phenyl)-4-(2-methoxyacetyl)piperazin-2-one]: the results for the IC50 (on HPK1; in assay [1]) were no more than 10 nM and 300 to 3000 nM, respectively.

As to `CN(C)CC(=O)N1CCN(c2cccc(-c3cnc4[nH]cc(C#Cc5cccnc5)c4c3Cl)c2)C(=O)C1` [Example 30, 1-(3-(4-chloro-3-(pyridin-3-ylethynyl)-1H-pyrrolo[2,3-b]pyridin-5-yl)phenyl)-4-(dimethylglycyl)piperazin-2-one], the results for the IC50 (at HPK1; in assay [1]) were 10 to 100 nM and 300 to 3000 nM, respectively.

For `CCc1c[nH]c2ncc(-c3cccc(N4CCN(C(=O)CN(C)C)CC4=O)c3)c(Cl)c12` [Example 31, 1-(3-(4-chloro-3-ethyl-1H-pyrrolo[2,3-b]pyridin-5-yl)phenyl)-4-(dimethylglycyl)piperazin-2-one], the values for the IC50 (against HPK1; in assay [1]) were no more than 10 nM and 300 to 3000 nM, respectively.

As to `COCC(=O)N1CCN(c2cccc(-c3cnc4[nH]cc(C5CC5)c4c3Cl)c2)C(=O)C1` [Example 32, 1-(3-(4-chloro-3-cyclopropyl-1H-pyrrolo[2,3-b]pyridin-5-yl)phenyl)-4-(2-methoxyacetyl) piperazin-2-one], the results for the IC50 (against HPK1; in assay [1]) were no more than 10 nM and no more than 300 nM, respectively.

As for `CCc1c[nH]c2ncc(-c3cccc(N4CCN(C(=O)CC56CC7CC(CC(C7)C5)C6)CC4=O)c3)c(Cl)c12` [Example 33, 4-(2-((1s,3s)-adamantan-1-yl)acetyl)-1-(3-(4-chloro-3-ethyl-1H-pyrrolo[2,3-b]pyridin-5-yl)phenyl)piperazin-2-one], the figures for the half-inhibitory concentration (IC50) (against HPK1; in assay [1]) were 10 to 100 nM and 3000 to 10000 nM, respectively.

Regarding `CCc1c[nH]c2ncc(-c3cccc(N4CCN(C(=O)CCCNC(=O)CC56CC7CC(CC(C7)C5)C6)CC4=O)c3)c(Cl)c12` [Example 34, 2-((3r,5r,7r)-adamantan-1-yl)-N-(4-(4-(3-(4-chloro-3-ethyl-1H-pyrrolo[2,3-b]pyridin-5-yl)phenyl)-3-oxopiperazin-1-yl)-4-oxobutyl)acetamide], the 50% inhibitory concentration (IC50) is 10 to 100 nM on HPK1 and 3000 to 10000 nM in assay [1].

Consider `COCC(=O)N1CCN(c2cccc(-c3cnc4[nH]cc(C#Cc5ccccn5)c4c3Cl)c2)C(=O)C1` [Example 35, 1-(3-(4-chloro-3-(pyridin-2-ylethynyl)-1H-pyrrolo[2,3-b]pyridin-5-yl)phenyl)-4-(2-methoxyacetyl)piperazin-2-one], for which the IC50 was 10 to 100 nM on HPK1 and 3000 to 10000 nM in assay [1].

With `COCC(=O)N1CCN(c2cccc(-c3cnc4[nH]cc(C#Cc5ncn(C)n5)c4c3Cl)c2)C(=O)C1` [Example 36, 1-(3-(4-chloro-3-((1-methyl-1H-1,2,4-triazol-3-yl)ethynyl)-1H-pyrrolo[2,3-b]pyridin-5-yl)phenyl)-4-(2-methoxyacetyl)piperazin-2-one], the IC50 on HPK1 was 10 to 100 nM; in assay [1] it was greater than 10000 nM.

For the compound `COCCN1CCN(c2cccc(-c3cnc4[nH]cc(CC(F)F)c4c3Cl)c2)C(=O)C1` [Example 37, 1-(3-(4-chloro-3-(2,2-difluoroethyl)-1H-pyrrolo[2,3-b]pyridin-5-yl)phenyl)-4-(2-methoxyethyl)piperazin-2-one], the IC50 against HPK1 lay within 10 to 100 nM; in assay [1], 300 to 3000 nM.

With `COCC(=O)N1CCN(c2cccc(-c3cnc4[nH]cc(CC(F)F)c4c3Cl)c2)C(=O)C1` [Example 38, 1-(3-(4-chloro-3-(2,2-difluoroethyl)-1H-pyrrolo[2,3-b]pyridin-5-yl)phenyl)-4-(2-methoxyacetyl)piperazin-2-one], the 50% inhibitory concentration (IC50) on HPK1 was no more than 10 nM; in assay [1], 300 to 3000 nM.

Regarding `COCCN1CCN(c2cccc(-c3cnc4[nH]cc(C5CC5)c4c3Cl)c2)C(=O)C1` [Example 39, 1-(3-(4-chloro-3-cyclopropyl-1H-pyrrolo[2,3-b]pyridin-5-yl)phenyl)-4-(2-methoxyethyl)piperazin-2-one], the IC50 on HPK1 was no more than 10 nM; in assay [1] it was 300 to 3000 nM.
